Columns and labels:
[1] = system: cultured human mast cells (CHMC); assay: CHMC low cell density ionomycin activation: tryptase assay; format: cell-based; conditions: low cell density CHMC, tryptase, 3 pt, read-out: LD Tryptase, CHMC, Iono, 3 pt
[2] = system: cultured human mast cells (CHMC); assay: CHMC low cell density IgE activation: tryptase assay; format: cell-based; conditions: low cell density CHMC, IgE activation, tryptase
Procedure, shortened: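 Tryptase release was read from supernatant with a fluorogenic substrate (30 min, room temperature) after anti-IgE challenge of cultured human mast cells (1000–1500 cells/well, low density) for 30 minutes at 37° C.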

[3] = 3 pt, read-out: LD Tryptase, CHMC, IgE, 3 pt
[4] = 8 pt, read-out: LD Tryptase, CHMC, IgE, 8 pt
[5] = Homo sapiens, Mast cell, 3 pt, read-out: LD Tryptase, CHMC, IgE, 3 pt
[6] = Homo sapiens, Mast cell, 8 pt, read-out: LD Tryptase, CHMC, IgE, 8 pt

| Structure (SMILES) | IC50 [1] [µM] | IC50 [2, 3] [µM] | IC50 [2, 4] [µM] | IC50 ([1]; Homo sapiens, Mast cell) [µM] | IC50 [2, 5] [µM] | IC50 [2, 6] [µM] |
| --- | --- | --- | --- | --- | --- | --- |
| CCOC(=O)C(C)(C)Oc1ccc(Nc2nc(Nc3ccc(OC)c(Cl)c3)ncc2F)cc1Cl [Compound 410, N4-[3-Chloro-4-(ethoxycarbonyl-1,1-dimethylmethyleneoxy)phenyl]-N2-(3-chloro-4-methoxyphenyl)-5-fluoro-2,4-pyrimidinediamine] | < 10 | < 10 | < 10 | – | – | – |
| CN(c1ccc2c(c1)OCCO2)c1nc(Nc2cccc(-c3cnco3)c2)ncc1F [Compound 411] | – | – | – | > 10 | < 10 | < 10 |
| CN(c1ccc2c(c1)OCCO2)c1nc(Nc2cccc(-c3ncco3)c2)ncc1F [Compound 412] | – | – | – | < 10 | < 10 | – |
| COc1ccc(Nc2nc(Nc3cc(C)cc(C)c3)ncc2F)cc1OC [Compound 413] | – | – | – | > 10 | < 10 | < 10 |
| COc1cc(Nc2ncc(F)c(Nc3ccc(OC)c(OC)c3)n2)cc(OC)c1 [Compound 414, N2-(3,5-Dimethoxyphenyl)-N4-(3,4-dimethoxyphenyl)-5-fluoro-2,4-pyrimidinediamine] | – | – | – | > 10 | < 10 | < 10 |
| CCOC(=O)c1cc2cccc(Nc3ncc(F)c(Nc4ccc(OC)c(OC)c4)n3)c2[nH]1 [Compound 415, N4-(3,4-Dimethoxyphenyl)-N2-[2-(ethoxycarbonyl)indol-7-yl]-5-fluoro-2,4-pyrimidinediamine] | – | – | – | > 10 | < 10 | < 10 |
| CN(c1ccc2c(c1)OCCO2)c1nc(Nc2ccc(-c3ncco3)cc2)ncc1F [Compound 416] | – | – | – | > 10 | < 10 | – |
| COC(=O)CN(c1ccc2c(c1)OCCO2)c1nc(Cl)ncc1F [Compound 418] | – | – | – | > 10 | > 10 | – |
| COc1ccc(Nc2nc(Nc3cccc(-c4cnco4)c3)ncc2F)cc1OC [Compound 419, N4-(3,4-Dimethoxyphenyl)-5-fluoro-N2-[3-(oxazol-5-yl)phenyl]-2,4-pyrimidinediamine] | – | – | – | > 10 | < 10 | < 10 |
| COC(=O)CN(c1ccc2c(c1)OCCO2)c1nc(Nc2ccc3cc[nH]c3c2)ncc1F [Compound 420, N4-(3,4-Ethylenedioxyphenyl)-5-fluoro-N2-(indol-6-yl)-N4-(methoxycarbonylmethyl)-2,4-pyrimidinediamine] | – | – | – | > 10 | < 10 | – |
| CNC(=O)c1cc2cccc(Nc3ncc(F)c(Nc4ccc(OC)c(OC)c4)n3)c2[nH]1 [Compound 421, N4-(3,4-Dimethoxyphenyl)-5-fluoro-N2-[2-(N-methylaminocarbonyl)indol-7-yl]-2,4-pyrimidinediamine] | – | – | – | > 10 | < 10 | – |
| COc1ccc(Nc2nc(Nc3ccc(-c4cnco4)cc3)ncc2F)cc1OC [Compound 422, N4-(3,4-Dimethoxyphenyl)-5-fluoro-N2-[4-(oxazol-5-yl)phenyl]-2,4-pyrimidinediamine] | – | – | – | > 10 | < 10 | < 10 |
| COc1ccc(Nc2nc(Nc3ccc(-c4ncco4)cc3)ncc2F)cc1OC [Compound 424] | – | – | – | > 10 | < 10 | – |
| COc1ccc(Nc2ncc(F)c(Nc3ccc(OC)c(OC)c3)n2)cc1Cl [Compound 425, N2-(3-Chloro-4-methoxyphenyl)-N4-(3,4-dimethoxyphenyl)-5-fluoro-2,4-pyrimidinediamine] | – | – | – | > 10 | < 10 | < 10 |
| CC(=O)N1CCN(c2cccc(Nc3ncc(F)c(Nc4ccc5c(c4)OCCO5)n3)c2)CC1 [Compound 426] | – | – | – | > 10 | < 10 | < 10 |
| CC(=O)N1CCN(c2ccc(Nc3ncc(F)c(Nc4ccc5c(c4)OCCO5)n3)cc2)CC1 [Compound 427, N2-[4-(4-Acetylpiperazino)phenyl]-N4-(3,4-ethylenedioxyphenyl)-5-fluoro-2,4-pyrimidinediamine] | – | – | – | > 10 | < 10 | < 10 |

| Structure (SMILES) | IC50 [1] [µM] | IC50 [2, 3] [µM] | IC50 [2, 4] [µM] | IC50 ([1]; Homo sapiens, Mast cell) [µM] | IC50 [2, 5] [µM] | IC50 [2, 6] [µM] |
| --- | --- | --- | --- | --- | --- | --- |
| COc1cc(Nc2nc(Nc3cccc(N4CCN(C(C)=O)CC4)c3)ncc2F)cc(OC)c1 [Compound 428, N2-[3-(4-Acetylpiperazino)phenyl]-N4-(3,5-dimethoxyphenyl)-5-fluoro-2,4-pyrimidinediamine] | – | – | – | > 10 | < 10 | – |
| COc1ccc(Nc2nc(Nc3cccc(N4CCN(C(C)=O)CC4)c3)ncc2F)cc1OC [Compound 429, N2-[3-(4-Acetylpiperazino)phenyl]-N4-(3,4-dimethoxyphenyl)-5-fluoro-2,4-pyrimidinediamine] | – | – | – | > 10 | < 10 | – |
| COc1ccc(Nc2nc(Nc3ccc(N4CCN(C(C)=O)CC4)cc3)ncc2F)cc1OC [Compound 430, N2-[4-(4-Acetylpiperazino)phenyl]-N4-(3,4-dimethoxyphenyl)-5-fluoro-2,4-pyrimidinediamine] | – | – | – | > 10 | < 10 | – |
| CC(=O)N1CCN(c2cccc(Nc3ncc(F)c(Nc4ccc5c(c4)OC(F)(F)C(F)(F)O5)n3)c2)CC1 [Compound 431] | > 10 | < 10 | < 10 | – | – | – |
| CC(=O)N1CCN(c2ccc(Nc3ncc(F)c(Nc4ccc5c(c4)OC(F)(F)C(F)(F)O5)n3)cc2)CC1 [Compound 432] | > 10 | < 10 | – | – | – | – |
| COc1ccc(N(C)c2nc(Nc3cc(C)cc(C)c3)ncc2F)cc1OC [Compound 433] | – | – | – | > 10 | < 10 | – |
| COc1cc(Nc2ncc(F)c(N(C)c3ccc(OC)c(OC)c3)n2)cc(OC)c1 [Compound 434] | – | – | – | > 10 | < 10 | – |
| CCOC(=O)c1cc2cccc(Nc3ncc(F)c(N(C)c4ccc(OC)c(OC)c4)n3)c2[nH]1 [Compound 435, N4-(3,4-Dimethoxyphenyl)-N2-[2-(ethoxycarbonyl)indol-7-yl]-5-fluoro-N4-methyl-2,4-pyrimidinediamine] | – | – | – | > 10 | < 10 | – |
| COc1ccc(N(C)c2nc(Nc3ccc4cc[nH]c4c3)ncc2F)cc1OC [Compound 436, N4-(3,4-Dimethoxyphenyl)-5-fluoro-N2-(indol-6-yl)-N4-methyl-2,4-pyrimidinediamine] | – | – | – | > 10 | < 10 | – |
| COc1cc(Nc2nc(Nc3ccc(N4CCN(C(C)=O)CC4)cc3)ncc2F)cc(OC)c1 [Compound 437] | – | – | – | > 10 | < 10 | – |
| COc1ccc(N(C)c2nc(Nc3cccc(-c4cnco4)c3)ncc2F)cc1OC [Compound 438, N4-(3,4-Dimethoxyphenyl)-5-fluoro-N4-methyl-N2-[3-(oxazol-5-yl)phenyl]-2,4-pyrimidinediamine] | – | – | – | > 10 | < 10 | < 10 |
| COc1ccc(N(C)c2nc(Nc3ccc(-c4ncco4)cc3)ncc2F)cc1OC [Compound 440, N4-(3,4-Dimethoxyphenyl)-5-fluoro-N4-methyl-N2-[4-(oxazol-2-yl)phenyl]-2,4-pyrimidinediamine] | – | – | – | > 10 | < 10 | – |
| COC(=O)CN(c1ccc2c(c1)OCCO2)c1nc(Nc2cc(C)cc(C)c2)ncc1F [Compound 441] | – | – | – | > 10 | < 10 | – |
| COC(=O)CN(c1ccc2c(c1)OCCO2)c1nc(Nc2cc(OC)cc(OC)c2)ncc1F [Compound 442] | – | – | – | > 10 | < 10 | – |
| COC(=O)CN(c1ccc2c(c1)OCCO2)c1nc(Nc2cccc(-c3cnco3)c2)ncc1F [Compound 443] | – | – | – | > 10 | < 10 | – |
| COC(=O)CN(c1ccc2c(c1)OCCO2)c1nc(Nc2cccc(-c3ncco3)c2)ncc1F [Compound 444] | – | – | – | > 10 | < 10 | – |

— patent US20220073536A1 (Rigel Pharmaceuticals, Inc., priority 2003, published 2022)
